The results in this text go back to patent US20250154144A1 (CHILDREN'S HOSPITAL MEDICAL CENTER, priority 2021, published 2025).

The target in assay [1] is T1, FLT3 (Homo sapiens, UniProt P36888).
T1 sequence (P36888 610-943 limits assumed): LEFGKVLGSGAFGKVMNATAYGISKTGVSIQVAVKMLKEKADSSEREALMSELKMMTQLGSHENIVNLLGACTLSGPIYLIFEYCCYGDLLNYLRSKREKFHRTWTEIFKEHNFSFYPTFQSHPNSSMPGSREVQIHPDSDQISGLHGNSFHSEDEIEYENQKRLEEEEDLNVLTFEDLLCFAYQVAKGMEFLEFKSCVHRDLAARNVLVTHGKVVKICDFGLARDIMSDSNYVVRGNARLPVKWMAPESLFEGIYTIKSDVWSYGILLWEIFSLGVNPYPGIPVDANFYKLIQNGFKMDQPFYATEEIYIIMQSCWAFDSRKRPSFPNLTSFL
Put plainly: RBC HotSpot Kinase Assay, FLT3. The following applies: FLT3 IC50.

The target of assay [2] is IRAK1 (Homo sapiens, UniProt P51617). Kind of assay: RBC HotSpot Kinase Assay, IRAK1. The following applies: IRAK1 IC50.
Sequence of IRAK1 (P51617 whole entry): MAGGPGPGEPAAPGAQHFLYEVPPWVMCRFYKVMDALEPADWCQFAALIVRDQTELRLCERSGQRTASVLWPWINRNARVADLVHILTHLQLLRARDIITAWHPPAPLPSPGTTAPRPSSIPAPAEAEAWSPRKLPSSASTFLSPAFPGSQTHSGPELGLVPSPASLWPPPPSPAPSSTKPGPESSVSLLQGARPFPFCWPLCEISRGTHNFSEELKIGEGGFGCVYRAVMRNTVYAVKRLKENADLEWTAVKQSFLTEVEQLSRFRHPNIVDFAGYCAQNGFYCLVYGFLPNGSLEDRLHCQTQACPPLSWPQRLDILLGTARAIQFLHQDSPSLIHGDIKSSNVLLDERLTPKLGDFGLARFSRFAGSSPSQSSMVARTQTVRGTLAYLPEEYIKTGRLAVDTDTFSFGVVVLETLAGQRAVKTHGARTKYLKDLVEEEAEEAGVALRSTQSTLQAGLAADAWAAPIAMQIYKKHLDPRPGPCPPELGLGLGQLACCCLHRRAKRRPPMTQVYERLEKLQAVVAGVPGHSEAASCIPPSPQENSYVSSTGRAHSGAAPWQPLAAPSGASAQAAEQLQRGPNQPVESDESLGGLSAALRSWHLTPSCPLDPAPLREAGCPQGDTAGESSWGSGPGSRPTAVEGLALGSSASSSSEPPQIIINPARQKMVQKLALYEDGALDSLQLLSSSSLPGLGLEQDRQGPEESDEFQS
For assay [3], the target named is T2, IRAK4 (Homo sapiens, UniProt Q9NWZ3).
T2 sequence (Q9NWZ3 1-460): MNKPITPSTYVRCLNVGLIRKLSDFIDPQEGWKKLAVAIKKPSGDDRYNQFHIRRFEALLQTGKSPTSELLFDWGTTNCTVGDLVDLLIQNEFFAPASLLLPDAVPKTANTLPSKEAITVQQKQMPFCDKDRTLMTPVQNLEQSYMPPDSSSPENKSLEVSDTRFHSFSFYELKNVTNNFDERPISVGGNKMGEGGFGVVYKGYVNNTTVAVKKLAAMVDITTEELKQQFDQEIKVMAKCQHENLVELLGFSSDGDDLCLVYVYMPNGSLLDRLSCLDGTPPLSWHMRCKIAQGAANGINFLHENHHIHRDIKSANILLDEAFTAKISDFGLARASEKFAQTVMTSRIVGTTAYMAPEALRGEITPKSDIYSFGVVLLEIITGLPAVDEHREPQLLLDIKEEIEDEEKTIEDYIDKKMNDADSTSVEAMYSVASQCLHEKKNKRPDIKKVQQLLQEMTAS
Kind of assay: RBC HotSpot Kinase Assay, IRAK4. As to conditions: IRAK4 IC50.

For assay [4], the system named is THP1 cells. Put plainly: Combination drug screening, Cell Titer Glo, 10 × 10 matrix, THP1 cells. In kind it is cell-based. Background: In ATP-based viability assays light output follows the ATP content of the culture.
The test system of assay [5] is MOLM14(D835Y) cells. Format: cell-based. The following applies: MOLM14(D835Y), 10 × 10.
The mark [6] stands for this setting: starting conc. 200 nM, with (+)-BAY-1251152 starting conc. 1000 nM.
Where [7] appears, read: starting conc. 200 nM, with Azacitidine (5-Azacytidine) starting conc. 20000 nM.
The mark [8] stands for this setting: starting conc. 200 nM, with Palbociclib starting conc. 10000 nM.
Setting [9] is: starting conc. 200 nM, with Prednisolone starting conc. 10000 nM.
Where [10] appears, read: starting conc. 200 nM, with TNO-155 starting conc. 10000 nM.
Where [11] appears, read: starting conc. 200 nM, with Venetoclax (ABT-199) starting conc. 2000 nM.
Where [12] appears, read: starting conc. 200 nM, with Venetoclax (ABT-199) starting conc. 20000 nM.
Setting [13] is: starting conc. 20000 nM, with (+)-BAY-1251152 starting conc. 1000 nM.
Where [14] appears, read: starting conc. 20000 nM, with Azacitidine (5-Azacytidine) starting conc. 20000 nM.
[15] abbreviates: starting conc. 20000 nM, with Palbociclib starting conc. 10000 nM.
[16] abbreviates: starting conc. 20000 nM, with Prednisolone starting conc. 10000 nM.
[17] abbreviates: starting conc. 20000 nM, with TNO-155 starting conc. 10000 nM.
The mark [18] stands for this setting: starting conc. 20000 nM, with Venetoclax (ABT-199) starting conc. 2000 nM.
Where [19] appears, read: starting conc. 20000 nM, with Venetoclax (ABT-199) starting conc. 20000 nM.

Read-outs that look alike come from different tables or passages of the source. Where only a bound is given, the exact number is not on record here.

The term IC50 denotes the point on the concentration scale where inhibition reaches its midpoint. High values mean a need for much substance, low ones inhibition by little substance. Take `COc1cc2ncc(-c3cncc(N[C@H]4CNC[C@@H]4F)n3)n2cc1C(C)(O)C(F)(F)F` (single isomer, unassigned) [Compound 61]: the IC50 in assay [1], in assay [2] and in assay [3] was less than 0.5 nM in each case.

For the compound `COc1cc2ncc(-c3ccnc(N[C@@H]4CCCNC4)n3)n2cc1C(C)(O)C(F)(F)F` (single isomer, unassigned) [Compound 57], the IC50 in assay [1], in assay [2] and in assay [3] was less than 0.5 nM in each case.

As to `COc1cc2ncc(-c3cncc(N[C@@H]4CCCNC4)n3)n2nc1C1CC1` [Compound 23, (R)-6-(6-cyclopropyl-7-methoxyimidazo[1,2-b]pyridazin-3-yl)-N-(piperidin-3-yl)pyrazin-2-amine], the 50% inhibitory concentration (IC50) in assay [1] is less than 0.5 nM; in assay [2] it was 175 nM; in assay [3], 1 nM.

Take `COc1cc2ncc(-c3cncc(N[C@@H]4CCCNC4)n3)n2nc1C(C)(O)C(F)(F)F` (single isomer, unassigned) [Compound 82]: the IC50 in assay [1] was determined as 67 nM; in assay [2], 5440 nM; in assay [3], 2040 nM.

Take `CC(C)(O)c1ccc2ncc(-c3ccnc(N[C@H]4CNC[C@@H]4F)n3)n2c1` [Compound 40, 2-(3-(2-(((3S,4S)-4-fluoropyrrolidin-3-yl)amino)pyrimidin-4-yl)imidazo[1,2-a]pyridin-6-yl)propan-2-ol]: the half-inhibitory concentration (IC50) in assay [1] is less than 0.5 nM; in assay [2] it was 79 nM; in assay [3] it was 1 nM.

Consider `COc1cc2ncc(-c3cncc(N[C@H]4CNC[C@@H]4F)n3)n2nc1C(C)(O)C(F)(F)F` (single isomer, unassigned) [Compound 83], for which the 50% inhibitory concentration (IC50) stood at 1 nM in assay [1], 4690 nM in assay [2] and 544 nM in assay [3].

Turning to `Cc1cnc(-c2ccc(-c3ccc(NC(=O)Nc4c(F)cc(F)cc4F)cc3F)c3c2C(=O)NC3)[nH]1` [CG-806, reference compound], the Comments result is listed as “Synergistic at both” in assay [4] (setting [6]); “Antagonistic” in assay [4] (setting [7]); “Antagonistic” in assay [4] (setting [8]); “Synergistic” in assay [4] (setting [9]); “Antagonistic” in assay [4] (setting [10]); “Synergistic; Optimal” in assay [4] (setting [11]). For the same compound, the Comments result is listed as “Synergistic; Optimal” in assay [4] (setting [12]); “Synergistic at both” in assay [4] (setting [13]); “Synergistic” in assay [4] (setting [14]); “Synergistic” in assay [4] (setting [15]); “Antagonistic” in assay [4] (setting [16]); “Synergistic” in assay [4] (setting [17]). The Comments entry in assay [4] (setting [18]) and in assay [4] (setting [19]) was “Synergistic; Optimal” each time. Also, the “Excess HSA Score” value is −467.1 in assay [4] (setting [6]); 45.86 in assay [4] (setting [7]); 74.09 in assay [4] (setting [8]); −30.78 in assay [4] (setting [9]); 12.04 in assay [4] (setting [10]); −1194 in assay [4] (setting [11]). Moreover, the “Excess HSA Score” value in assay [4] (setting [12]) is −1904; in assay [4] (setting [13]), −821.7; in assay [4] (setting [14]), −425.4; in assay [4] (setting [15]), −65.24; in assay [4] (setting [16]), 185.6; in assay [4] (setting [17]), −333.2. Moreover, the “Excess HSA Score” value in assay [4] (setting [18]) is listed as −9.516; in assay [4] (setting [19]), −1150; in assay [5] (title compound starting conc. 200 nM + (+)-BAY-1251152 starting conc. 1000 nM), −340.1; in assay [5] (title compound starting conc. 200 nM + Azacitidine (5-Azacytidine) starting conc. 20000 nM) it was −208.9; in assay [5] (title compound starting conc. 200 nM + Palbociclib starting conc. 10000 nM) it was −828; in assay [5] (title compound starting conc. 200 nM + Prednisolone starting conc. 10000 nM), −264.6. Further, the “Excess HSA Score” value in assay [5] (title compound starting conc. 200 nM + TNO-155 starting conc. 10000 nM) is given as −776.6; in assay [5] (title compound starting conc. 200 nM + Venetoclax (ABT-199) starting conc. 2000 nM), −1066; in assay [5] (title compound starting conc. 200 nM + Venetoclax (ABT-199) starting conc. 20000 nM) it was −258.9; in assay [5] (title compound starting conc. 20000 nM + (+)-BAY-1251152 starting conc. 1000 nM), −150.9; in assay [5] (title compound starting conc. 20000 nM + Azacitidine (5-Azacytidine) starting conc. 20000 nM), −51.33; in assay [5] (title compound starting conc. 20000 nM + Palbociclib starting conc. 10000 nM), −199.1. For the same compound, the “Excess HSA Score” value was 107.5 in assay [5] (title compound starting conc. 20000 nM + Prednisolone starting conc. 10000 nM), −286.9 in assay [5] (title compound starting conc. 20000 nM + TNO-155 starting conc. 10000 nM), −481.6 in assay [5] (title compound starting conc. 20000 nM + Venetoclax (ABT-199) starting conc. 2000 nM) and −139.4 in assay [5] (title compound starting conc. 20000 nM + Venetoclax (ABT-199) starting conc. 20000 nM).
